For series [1] the following is noted: in vivo; cited from earlier work.
The target of series [2] is SF3b complex (Homo sapiens, UniProt O75533+Q7RTV0). Description: Payload binding to the SF3b complex (SF3B1 binding). As to conditions: SF3B1 (WT), HELA.2, read-out: SPA-ATS GMean IC50 (nM) SF3B1 (WT) HELA.2. The procedure: Exemplary herboxidiene spliceosome modulator payloads used in the preparation of ADCs were profiled. Payloads were evaluated for binding to the SF3b complex, in vitro splicing activity, and ability to inhibit cell growth.

The test system of series [3] is Ad2.2 pre-mRNA. Description: In vitro splicing (IVS) assay with HeLa nuclear extract, RT-qPCR of spliced product. The class given is biochemical. Conditions: payload, HELA.2, read-out: qPCR-IVS-ATS GMean IC50 (nM) Ad2.2 HELA.2. The procedure: 2.1 In Vitro Splicing (IVS)
To evaluate payload activity in a cell-free system, an in vitro splicing assay was performed. The payloads were incubated with nuclear extracts and pre-mRNA substrate minigenes.
HeLa nuclear extract preparation: HeLa S3 cell pellets were resuspended in hypotonic buffer (10 mM HEPES pH 7.9, 1.5 mM MgCl2, 10 mM KCl, 0.2 mM PMSF, 0.5 mM DTT) and the suspension was brought up to a total of 5 packed cell volume (PCV). After centrifugation, the supernatant was discarded, and the cells were brought up to 3 PCV with hypotonic buffer and incubated on ice for 10 min. Cells were lysed using a dounce homogenizer and then centrifuged. The supernatant was discarded, and the pellet was resuspended with […] packed nuclear volume (PNV) of low salt buffer (20 mM HEPES pH 7.9, 1.5 mM MgCl2, 20 mM KCl, 0.2 mM EDTA, 25% glycerol, 0.2 mM PMSF, 0.5 mM DTT), followed by 1/2 PNV of high salt buffer (same as low salt buffer except 1.4 M KCl). The nuclei were gently mixed for 30 min before centrifuging. The supernatant (nuclear extract) was then dialyzed into storage buffer (20 mM HEPES pH 7.9, 100 mM KCl, 0.2 mM EDTA, 20% glycerol, 0.2 mM PMSF, 0.5 mM DTT). Protein concentration was determined using NanoDrop 8000 UV-Vis spectrophotometer (ThermoFisher Scientific).
IVS: All Ad2-derived sequences (Pellizzoni et al. (1998) Cell 95(5):615-24) were cloned into pcDNA3.1(+) vector (Promega) using 5′ EcoRI and 3′ Xbal restriction sites. The plasmids were linearized using Xbal and used as DNA templates in in vitro transcription reactions. The FtzΔi intron-less plasmid (Luo and Reed (1999) 96(26):14937-42) was linearized using EcoRI. All RNAs were in vitro transcribed and then purified using MEGAScript T7 (Invitrogen) and MegaClear (Invitrogen) kits, respectively. For splicing reactions using Ad2 variant pre-mRNAs, […] were prepared using 8 μg nuclear extracts prepared from HeLa S3, 2 ng pre-mRNA, 0.2 ng FTZΔi, and varying concentrations of compounds or DMSO. After a 15 min pre-incubation at 30° C., 1 μL splicing activation buffer (0.5 mM ATP, 20 mM creatine phosphate, 1.6 mM MgCl2) was added, and the reactions were incubated for 90 min at 30° C. The reactions were then quenched with 13 μL DMSO, and 25 nL was used for RT-qPCR. RT-qPCR reactions were prepared using TaqMan RNA-to-CT 1-step kit (Life Technologies), RNA from splicing reactions, Ad2 (forward: […]; reverse: […]; probe: CTGTTGGGCTCGCGGTTG) and Ftz (forward: […]; reverse: […]; probe: […]) mRNA primer-probe sets. Prism 7 (Graphpad) was used for non-linear regression curve fitting of the formed spliced product and normalized to the control (DMSO) sample.

Series [4] in a line: Caco-2 permeability of ADC payload. The class given is in vitro ADME. Conditions: human. The procedure: 3.5.2 Caco-2 Permeability of ADC Payload
Caco-2 cells were cultured for 21 days in transwell 24-well plates at 37° C., 95% humidity, 5% CO2. Integrity of cell monolayer was confirmed by TEER (transepithelial electrical resistance) and Lucifer yellow. Payloads were spiked in duplicate at 10 μM, separately, on both sides of the cell monolayer. Permeability rates from the apical to basolateral (A-B) direction and the basolateral to apical (B-A) direction were determined by sampling aliquots from both chambers immediately after treatment (t=0) and following incubation for 2 hours. Samples were protein precipitated with organic solvent containing internal standard and analyzed by LC-MS/MS (SCI EX; API 5500). The area ratio responses of payload/internal standard over time in both directions were used to generate permeability (cm/sec) values. Efflux ratio was calculated by dividing B-A/A-B. Control compounds for low and high permeability and efflux behaved as expected.

Series [5] in a line: Chemical stability of ADC payload in Mcilvane buffer pH 5.5. Type of series: physicochemical. As to conditions: payload 20 μM, pH 5.5, 37° C. The procedure: 3.5.3 Chemical Stability of ADC Payload
Herboxidiene splicing modulators were incubated in Mcilvane (Citrate-Phosphate) buffer, pH 5.5 (Boston Bioproducts; #BB-2466) at a final concentration of 20 μM (less than 0.5% DMSO from stock solution). The herboxidiene splicing modulator solution and the internal standard were pipetted into 96-well plates, ran on UPLC (Waters Acquity H class), and analyzed for initial chromatographic signal (t=0). The column was a Waters UPLC HSS T3 1.8 μm 2.1×50 mm column (#186003538). A gradient of mobile phase A from 95% to 10% was employed over 1 min, where A was 0.1% formic acid in water and mobile phase B was 0.1% formic acid in acetonitrile (flow rate 0.9 mL/min). The remainder of the herboxidiene splicing modulator solution was kept in a plate shaker at 37° C. (Eppendorf ThermoMixer). Sample analyses by UPLC were repeated at 24, 72, and 96 hours post-incubation at 37° C. The area ratio response of the herboxidiene splicing modulator and internal standard was determined for three time points: time 0, day 1, and either day 3 or day 4. Time 0 was set to 100. The area ratio responses of the later time points were compared to time 0. Percent remaining was calculated as follows: (Area Ratio day X/Area Ratio time 0)*100=% remaining. The slope of the line was calculated in Excel comparing the log of % remaining and time point.

Series [6] deals with Ad2.1. The series can be described thus: In vitro splicing (IVS) assay, qPCR-IVS-ATS, Ad2.1 substrate, HELA.2. Conditions: payload, read-out: qPCR-IVS-ATS GMean IC50 (nM) Ad2.1 HELA.2. Type of series: biochemical.
Series [7] concerns THP1.1. Description: Herboxidiene splicing modulator cell potency, CTGlo-ATS, THP1.1, 72 h. The class given is cell-based.
The test system of series [8] is NCIH1650.1. The series can be described thus: Herboxidiene splicing modulator cell potency, CTGlo-ATS, NCIH1650.1, 72 h. Type of series: cell-based.

On to “Ipilimumab: fully human anti-CTLA4 antibody, IgG1”, for which, in series [1], the plasma half-life was 288 to 336 h.
As to `CO[C@H]([C@@H](C)[C@H]1O[C@]1(C)C[C@H](C)/C=C/C=C(\C)[C@H]1O[C@@H](CC(=O)O)C[C@@H](OC(=O)N2CCNCC2)[C@@H]1C)[C@@H](C)O` [Compound H1, 2-((2R,4R,5S,6S)-6-((S,2E,4E)-7-((2R,3R)-3-((2R,3R,4R)-4-hydroxy-3-methoxypentan-2-yl)-2-methyloxiran-2-yl)-6-methylhepta-2,4-dien-2-yl)-5-methyl-4-((piperazine-1-carbonyl)oxy)tetrahydro-2H-pyran-2-yl)acetic acid], the 50% inhibitory concentration (IC50) came to 11.7 nM in series [2], 33.7 nM in series [3] and 72.6 nM in series [6]. In addition, the efflux ratio at 2 h, 10 μM in series [4] (efflux ratio, B-A/A-B, read-out: ER) came to 1.27. For the same molecule, in series [4] (payload at 10 μM, 2 hours, apical to basolateral, read-out: Permeability Mean Caco-2 A-B Perm), the Papp A→B at 2 h, 10 μM turned out to be 0.263 ×10⁻⁶ cm/s. The same molecule showed a basolateral-to-apical permeability (Papp B→A) at 2 h, 10 μM in series [4] (payload at 10 μM, 2 hours, head incomplete (column between A-B and ER)) of 0.334 ×10⁻⁶ cm/s. In addition, the half-life at 20 μM in series [5] (McIlvaine (citrate-phosphate) buffer, read-out: Stability Mean Stability t½ pH 5.5 (converted)) was 84 h. In addition, the “Stability Mean Stability % pH 5.5 t 24 h” value in series [5] (% remaining at 24 h) is 79%. For the same molecule, in series [7] (payload, THP1.1), the “CTGIo-ATS GMean LD50 (nM) 72 h THP1.1” value turned out to be 697.273 nM. Further, the “CTGIo-ATS Mean MinResponse % 72 h THP1.1” value in series [7] (payload, THP1.1) is −84.238%. Moreover, the figures for the GI50 in series [7] (read-out: CTGIo-ATS GMean GI50 (nM) 72 h THP1.1) and in series [8] (read-out: CTGIo-ATS GMean GI50 (nM) 72 h NCIH1650.1) were 114 nM and 182 nM, respectively. Also, the “CTGIo-ATS GMean LD50 (nM) 72 h NCIH1650.1” value in series [8] (payload, NCIH1650.1) was over 10000 nM. The “CTGIo-ATS Mean MinResponse % 72 h NCIH1650.1” value in series [8] (payload, NCIH1650.1) turned out to be 10.179%.
Take “tremelimumab: fully human anti-CTLA4 antibody, IgG2”: the plasma half-life result in series [1] is “approximately 22 days”.

These data come from patent publication US12514928B2, “Herboxidiene antibody-drug conjugates and methods of use” (Eisai R&D Management Co., Ltd., priority 2018, dated 2026).
